Data from patent US8367121B2, “Nutraceutical agent for attenuating the neurodegenerative process associated with Parkinson's disease” (Florida A & M University, priority 2005, dated 2013).
Like-named read-outs stand apart in the source and are kept apart here.

Assays:
MPP+ toxicity = MPP+ toxicity in vitro (loss of ATP / cell death); assay type: cell-based; settings: for protection against MPP+ toxicity: in vitro
[1] = Non-enzymatic DA oxidation to melanized pigments in buffered non-acid solution exposed to atmosphere; settings: neutral pH; data not published
Text: 2. DA AUTOXIDATION—The second major route for DA oxidation is non-enzymatic autoxidation in the presence of H2O2, ROS and metals (Fe^+2, Cu^+2, and Mn^+2) (Montgomery et al., Toxicology. 1995 Mar. 31; 97(1-3):3-9; Sayre et al., 1999 Bio-inorganic Chemistry 3:220-225). Autoxidation of DA can render formation of 6-OHDA (a potent neurotoxin) and O2.^−, of which the later if in proximity to nitric oxide (NO) can react to form ONOO—. Peroxynitrite can then re-oxidize DA, deplete available reduced glutathione/ascorbate, incur a substantial loss of endogenous GSH-peroxidase function and destroy the natural ability of GSH to act as an antioxidant, inactivate toxic DA o-semiquinones or ONOO—(Blum et al., 2001; Antunes et al., Toxicology. 2005 Mar. 15; 208(2):207-12). Likewise, the neurological damage associated with PD corresponds to depletion of SNc GSH as consistently evidenced in various studies (Ebadi et al, Prog Neurobiol. 1996 January; 48(1):1-19) and a reduction of GSH (ie. γ-glutamylcysteine. synthetase inhibitor) renders SNc neurons extremely vulnerable to the toxic effects of MPTP and 6-OHDA (Bharath et al., Biochem Pharmacol. 2002 September; 64(5-6):1037-48). In contrast, administration of thiol antioxidants such as dithioreitol, GSH and NAC (which block the autoxidation of DA), prevent MPTP induced toxicity in mice (Annepu and Ravindranath, Neurosci Lett. 2000 Aug. 11; 289(3):209-12; Bahat-Stroomza et al., Eur J Neurosci. 2005 February; 21(3):637-46). For these reasons, the formulation will include substances that prevent non-enzymatic DA oxidation herein classified under “DA-AUTOXIDATION (−)”. The compounds chosen were based on their propensity to block DA oxidation to melanized pigments in buffered non-acid solution exposed to atmosphere and corresponding production of ROS upon exposure of O2 (data not published). Of approximately 100 food based compounds tested in our lab, the findings indicate a block of DA oxidation at neutral pH by PY, β-CAROTENE (*), NAC (*), GSH (*), VITAMIN C (*). […] The addition of ascorbic acid as a DA-AUTOXIDATION (−) should be limited given its negative counter-indication with iron and 6-OHDA (Mendez-Alvarez et al., Free Radic Biol Med. 2001 Oct. 15; 31(8):986-98). In contrast, ample concentration of thiol substances should be added to the formulation as they are non-toxic, attenuate pathological effects of 6-OHDA, ONOO— and block the formation of DA o-semiquinone neurotoxic radicals (Asanuma et al., Acta Med. Okayama 2004: 58 (5) 221-233).

LDH = experiment: Substrate for lactic acid dehydrogenase; assay type: biochemical
Text: (§1) With that, overcoming the initial deficit imposed by PD toxins such as MPP+ are possible with non-glucose intermediates that are capable of sustaining ATP production through substrate level phosphorylation. These compounds should protect against cell death by MPP+, herein also classified under “ANAEROBIC (+)”. […] Agents capable of mediating positive effects on PK/LDH should in theory offset the metabolic vulnerability imposed by the rise in lactate/pyruvate, nicotinamide adenine dinucleotide (NAD)/nicotinamide adenine dinucleotide reduced (NADH) and NADP/NADPH ratios that occur during hypoglycemia and neurological damage (Auer RN. Metab Brain Dis. 2004 December; 19(3-4):169-75). For this reason, the first component and the base of this nutraceutical formulation are one or more of PYRUVIC ACID (*) (PY), […] ACID (SA)* and OXALOACETATE (*) (OA) as well as their corresponding molecular derivatives, analogues, esters or salts. […] On the other hand, PY can readily enter the brain, serve as a useful substrate for glycolysis, the Krebs cycle and the GABA shunt (Gonzalez et al., J Neurochem. 2005 October; 95(1):284-93) with capability to protect ergogenic failure associated with ischemic stroke and heart disease (Lee et al., J Neurosci. 2001 Oct. 15; 21(20):RC171; Hermann et al., Eur J Heart Fail. 2004 Mar. 1; 6(2):213-8).

6-OHDA toxicity [2] = experiment: 6-OHDA toxicity in vitro; assay type: cell-based
H2O2 toxicity = H2O2 toxicity in vitro; assay type: cell-based
Text: as §1

[3] = Reduce/chelate and complex iron; settings: as demonstrated in our lab
[4] = test system: mitochondrial respiration; experiment: Mitochondrial O2 consumption / respiration; assay type: biochemical
complex II = experiment: Mitochondrial complex II function; assay type: biochemical
complex I = experiment: Mitochondrial complex I function
complex IV = experiment: Mitochondrial complex IV function; assay type: biochemical
[5] = Non-enzymatic H2O2 scavenging
6-OHDA toxicity [6] = settings: Kabuto et al., Neurochem Res. 2005; cited from earlier work

Compound: CC(=O)O[C@H](CC(=O)[O-])C[N+](C)(C)C [ACETYL-L-CARNITINE]
- protection against MPP+ toxicity (MPP+ toxicity): effective

Compound: CC(=O)C(=O)O [PY, PYRUVIC ACID]
- protection against MPP+ toxicity (MPP+ toxicity): protect
- block of DA oxidation [1]: block
- substrates for LDH (LDH): exceptional substrates for LDH
- protection against / antagonism of 6-OHDA toxicity (6-OHDA toxicity [2]): protect
- protection against / antagonism of 6-OHDA toxicity (6-OHDA toxicity [2]; listed as pyruvate): directly antagonize
- protection against H2O2 toxicity (H2O2 toxicity): protect

Compound: O=C(O)CCC(=O)O [SA, SUCCINIC ACID]
- fuel anaerobic glycolysis in the presence of MPP+ (MPP+ toxicity; data not published): great propensity

Compound: Oc1ccc2c(c1)OCO2 [SESAMOL]
- reduce/chelate and complex iron [3]: most powerful

Compound: O=C(O)/C=C/c1ccc(O)c(O)c1 [caffeic acid]
- reduce/chelate and complex iron [3]: most powerful

Compound: COC1=C(OC)C(=O)C(C/C=C(\C)CC/C=C(\C)CC/C=C(\C)CC/C=C(\C)CC/C=C(\C)CC/C=C(\C)CC/C=C(\C)CC/C=C(\C)CC/C=C(\C)CCC=C(C)C)=C(C)C1=O [coenzyme Q10]
- protection against MPP+ toxicity (MPP+ toxicity): no effects
- effects on mitochondrial O2 consumption / mitochondrial respiration as a whole [4]: no effects
- potentiation of complex II function (complex II): mild potentiator
- effects on complex I function (complex I): little to no effects
- effects on complex IV function (complex IV): little to no effects

Compound: CN1C(C(=O)Nc2ccccn2)=C(O)c2ccccc2S1(=O)=O [PIROXICAM, reference compound]
- protection against MPP+ toxicity (MPP+ toxicity): effective

Compound: N[C@@H](CCC(=O)N[C@@H](CS)C(=O)NCC(=O)O)C(=O)O [GSH, reduced glutathione]
- block of DA oxidation [1]: block
- protection against / antagonism of 6-OHDA toxicity (6-OHDA toxicity [2]): directly antagonize

Compound: Vitamin E
- block of DA oxidation [1]: lack of effects
- scavenge H2O2 [5]: lack of effects

Compound: O=C(COP(=O)(O)O)[C@@H](O)[C@H](O)[C@H](O)COP(=O)(O)O [FRUCTOSE 1,6 BISPHOSPHATE]
- protection against MPP+ toxicity (MPP+ toxicity): effective

Compound: O=c1c(O)c(-c2ccc(O)cc2O)oc2cc(O)cc(O)c12 [MORIN]
- reduce/chelate and complex iron [3]: most powerful

Compound: CC1=CC(=O)C(C(C)C)=CC1=O [THYMOQUINONE]
- protection against MPP+ toxicity (MPP+ toxicity): effective

Compound: COc1cc(/C=C/C(=O)O)ccc1O [FERULIC ACID]
- reduce/chelate and complex iron [3]: most powerful

Compound: C=C(OP(=O)(O)O)C(=O)O [PHOSPHOENOLPYRUVATE]
- protection against MPP+ toxicity (MPP+ toxicity): effective

Compound: CYTOCHROME C: cytochrome C, combined with an H2O2 antioxidant to detoxify 6-OHDA
- protection against / antagonism of 6-OHDA toxicity (6-OHDA toxicity [2]): directly antagonize

Compound: O=C1O[C@H]([C@@H](O)CO)C(O)=C1O [VITAMIN C, ascorbic acid]
- block of DA oxidation [1]: block

Compound: O=C(CO)[C@@H](O)[C@H](O)[C@H](O)CO [FRUCTOSE]
- protection against MPP+ toxicity (MPP+ toxicity): effective

Compound: N[C@@H](Cc1c[nH]c2ccccc12)C(=O)O [TRYPTOPHAN]
- protection against MPP+ toxicity (MPP+ toxicity): effective

Compound: O=c1oc2c(O)c(O)cc3c(=O)oc4c(O)c(O)cc1c4c23 [ellagic acid]
- reduce/chelate and complex iron [3]: most powerful

Compound: N[C@@H](Cc1c[nH]cn1)C(=O)O [histidine]
- protection against / antagonism of 6-OHDA toxicity (6-OHDA toxicity [2]): mild protection

Compound: O=C(O[C@@H]1Cc2c(O)cc(O)cc2O[C@@H]1c1cc(O)c(O)c(O)c1)c1cc(O)c(O)c(O)c1 [EGCG, (−)-Epigallocatechin-3-gallate]
- protection against MPP+ toxicity (MPP+ toxicity): effective

Compound: COc1cc(CCC(C)=O)ccc1O [zingerone]
- antagonism of 6-OHDA toxicity (6-OHDA toxicity [6]): directly antagonize

Compound: Oc1ccc(C=Cc2cc(O)cc(O)c2)cc1 [RESVERATROL]
- protection against MPP+ toxicity (MPP+ toxicity): effective

Compound: O=c1c(O)c(-c2ccc(O)c(O)c2)oc2cc(O)cc(O)c12 [quercetin]
- reduce/chelate and complex iron [3]: most powerful

Compound: CC(=O)N[C@@H](CS)C(=O)O [NAC, N-acetyl-L-cysteine]
- block of DA oxidation [1]: block
- protection against / antagonism of 6-OHDA toxicity (6-OHDA toxicity [2]): directly antagonize

Compound: NARINGEN
- protection against MPP+ toxicity (MPP+ toxicity): effective

Compound: NC(=O)C1=CN([C@@H]2O[C@H](COP(=O)(O)OP(=O)(O)OC[C@H]3O[C@@H](n4cnc5c(N)ncnc54)[C@H](O)[C@@H]3O)[C@@H](O)[C@H]2O)C=CC1 [NADH, reduced nicotinamide adenine dinucleotide]
- protection against MPP+ toxicity (MPP+ toxicity): protect

Compound: CC1=C(/C=C/C(C)=C/C=C/C(C)=C/C=C/C=C(C)/C=C/C=C(C)/C=C/C2=C(C)CCCC2(C)C)C(C)(C)CCC1 [β-CAROTENE]
- block of DA oxidation [1]: block
- scavenge H2O2 [5]: scavenge

Compound: Cc1cc2nc3c(=O)[nH]c(=O)nc-3n(C[C@H](O)[C@H](O)[C@H](O)CO)c2cc1C [riboflavin, RIBOFLAVIN]
- protection against MPP+ toxicity (MPP+ toxicity): exacerbating
